# What was measured:
# [1] = Cytotoxicity against human MT4 cells assessed as reduction in cell viability incubated for 5 days by MTT method; format: toxicity, cell-based; conditions: time 5 day
# [2] = test system: Human immunodeficiency virus 1; assay: Antiviral activity against HIV1 IIIB harboring K103 N mutant infected in MT4 cells assessed as reduction in virus induced cytopathic effect incubated for 5 days by MTT method; format: functional, organism-based; conditions: Human immunodeficiency virus 1, IIIB, MT4, 120 h
# [3] = test system: Human immunodeficiency virus 1; assay: Antiviral activity against HIV1 IIIB infected in MT4 cells assessed as reduction in virus induced cytopathic effect incubated for 5 days by MTT method; format: functional, organism-based; conditions: Human immunodeficiency virus 1, IIIB, MT4, 120 h
# [4] = test system: Human immunodeficiency virus 1; assay: Antiviral activity against HIV1 IIIB harboring RES056 mutant infected in MT4 cells assessed as reduction in virus induced cytopathic effect incubated for 5 days by MTT method; format: functional, organism-based; conditions: Human immunodeficiency virus 1, IIIB, MT4, 120 h
# [5] = test system: Human immunodeficiency virus 1; assay: Antiviral activity against HIV1 IIIB harboring F227L/V106A double mutant infected in MT4 cells assessed as reduction in virus induced cytopathic effect incubated for 5 days by MTT method; format: functional, organism-based; conditions: Human immunodeficiency virus 1, IIIB, MT4, 120 h
# [6] = Selectivity index, ratio of CC50 for human MT4 cells to EC50 for antiviral activity against HIV1 IIIB infected in MT4 cells; format: toxicity, cell-based; conditions: read-out: Ratio CC50/EC50
# [7] = test system: Human immunodeficiency virus 1; assay: Antiviral activity against HIV1 IIIB harboring E138K mutant infected in MT4 cells assessed as reduction in virus induced cytopathic effect incubated for 5 days by MTT method; format: functional, organism-based; conditions: Human immunodeficiency virus 1, IIIB, MT4, 120 h
# [8] = test system: Human immunodeficiency virus 1; assay: Antiviral activity against HIV1 IIIB harboring L100I mutant infected in MT4 cells assessed as reduction in virus induced cytopathic effect incubated for 5 days by MTT method; format: functional, organism-based; conditions: Human immunodeficiency virus 1, IIIB, MT4, 120 h
# [9] = test system: Human immunodeficiency virus 1; assay: Antiviral activity against HIV1 IIIB harboring Y188L mutant infected in MT4 cells assessed as reduction in virus induced cytopathic effect incubated for 5 days by MTT method; format: functional, organism-based; conditions: Human immunodeficiency virus 1, IIIB, MT4, 120 h
# [10] = test system: Human immunodeficiency virus 1; assay: Antiviral activity against HIV1 IIIB harboring Y181C mutant infected in MT4 cells assessed as reduction in virus induced cytopathic effect incubated for 5 days by MTT method; format: functional, organism-based; conditions: Human immunodeficiency virus 1, IIIB, MT4, 120 h
compound,measurement,setting,value
O=C1Nc2ccc(Cl)cc2[C@@](C#CC2CC2)(C(F)(F)F)O1 [EFAVIRENZ],CC50 at 120 h,[1],> 6.35 µM
CNC(=O)Cn1cc(CN2CCC(Nc3nc4c(c(Oc5c(C)cc(/C=C/C#N)cc5C)n3)COC4)CC2)nn1,EC50,[2],0.008 µM
same,CC50 at 120 h,[1],119 µM
same,EC50,[3],0.004 µM
same,EC50,[4],0.805 µM
same,EC50,[5],0.945 µM
same,selectivity ratio,[6],31300
same,EC50,[7],0.017 µM
same,EC50,[8],0.017 µM
same,EC50,[9],0.179 µM
same,EC50,[10],0.028 µM
Cc1cc(/C=C/C#N)cc(C)c1Oc1nc(NC2CCN(Cc3cn(CC(=O)NC4CCOCC4)nn3)CC2)nc2c1COC2,EC50,[2],0.016 µM
same,CC50 at 120 h,[1],112 µM
same,EC50,[3],0.011 µM
same,EC50,[4],0.385 µM
same,EC50,[5],0.687 µM
same,selectivity ratio,[6],10400
same,EC50,[7],0.025 µM
same,EC50,[8],0.021 µM
same,EC50,[9],0.159 µM
same,EC50,[10],0.038 µM
Cc1cc(/C=C/C#N)cc(C)c1Oc1nc(NC2CCN(Cc3cn(CC(=O)NC4CCOCC4)nn3)CC2)nc2ccsc12,EC50,[2],0.004 µM
same,CC50 at 120 h,[1],15.6 µM
same,EC50,[3],0.005 µM
same,EC50,[4],0.101 µM
same,EC50,[5],0.107 µM
same,selectivity ratio,[6],3060
same,EC50,[7],0.02 µM
same,EC50,[8],0.009 µM
same,EC50,[9],0.04 µM
same,EC50,[10],0.019 µM
CNC(=O)Cn1cc(CN2CCC(Nc3nccc(Oc4c(C)cc(/C=C/C#N)cc4C)n3)CC2)nn1,EC50,[2],0.002 µM
same,CC50 at 120 h,[1],23.5 µM
same,EC50,[3],0.001 µM
same,EC50,[4],0.262 µM
same,EC50,[5],0.209 µM
same,selectivity ratio,[6],19600
same,EC50,[7],0.01 µM
same,EC50,[8],0.01 µM
same,EC50,[9],0.551 µM
same,EC50,[10],0.011 µM
CCNC(=O)Cn1cc(CN2CCC(Nc3nc4c(c(Oc5c(C)cc(/C=C/C#N)cc5C)n3)COC4)CC2)nn1,EC50,[2],0.006 µM
same,CC50 at 120 h,[1],120 µM
same,EC50,[3],0.004 µM
same,EC50,[4],0.512 µM
same,EC50,[5],0.259 µM
same,selectivity ratio,[6],33200
same,EC50,[7],0.022 µM
same,EC50,[8],0.013 µM
same,EC50,[9],0.175 µM
same,EC50,[10],0.02 µM
Cc1cc(/C=C/C#N)cc(C)c1Oc1nc(NC2CCN(Cc3cn(CC(N)=O)nn3)CC2)nc2ccsc12,EC50,[2],0.008 µM
same,CC50 at 120 h,[1],16.2 µM
same,EC50,[3],0.005 µM
same,EC50,[4],0.24 µM
same,EC50,[5],0.094 µM
same,selectivity ratio,[6],3000
same,EC50,[7],0.021 µM
same,EC50,[8],0.018 µM
same,EC50,[9],0.097 µM
same,EC50,[10],0.032 µM
CCNC(=O)Cn1cc(CN2CCC(Nc3nc(Oc4c(C)cc(/C=C/C#N)cc4C)c4ccccc4n3)CC2)nn1,EC50,[2],0.01 µM
same,CC50 at 120 h,[1],23.7 µM
same,EC50,[3],0.005 µM
same,EC50,[4],0.241 µM
same,EC50,[5],0.927 µM
same,selectivity ratio,[6],4230
same,EC50,[7],0.036 µM
same,EC50,[8],0.018 µM
same,EC50,[9],0.06 µM
same,EC50,[10],0.033 µM
Cc1cc(/C=C/C#N)cc(C)c1Oc1nc(NC2CCN(Cc3cn(CC(N)=O)nn3)CC2)nc2ccccc12,EC50,[2],0.008 µM
same,CC50 at 120 h,[1],18.1 µM
same,EC50,[3],0.006 µM
same,EC50,[4],0.187 µM
same,EC50,[5],0.499 µM
same,selectivity ratio,[6],3300
same,EC50,[7],0.023 µM
same,EC50,[8],0.017 µM
same,EC50,[9],0.081 µM
same,EC50,[10],0.033 µM
Cc1cc(/C=C/C#N)cc(C)c1Oc1nc(NC2CCN(Cc3cn(CC(=O)NC4CC4)nn3)CC2)nc2ccsc12,CC50 at 120 h,[1],18.2 µM
same,EC50,[3],0.006 µM
same,EC50,[4],0.191 µM
same,EC50,[5],0.159 µM
same,selectivity ratio,[6],2940
same,EC50,[7],0.026 µM
same,EC50,[8],0.017 µM
same,EC50,[9],0.088 µM
same,EC50,[10],0.023 µM
CCNC(=O)Cn1cc(CN2CCC(Nc3nc(Oc4c(C)cc(/C=C/C#N)cc4C)c4sccc4n3)CC2)nn1,EC50,[2],0.006 µM
same,CC50 at 120 h,[1],17.5 µM
same,EC50,[3],0.005 µM
same,EC50,[4],0.181 µM
same,EC50,[5],0.168 µM
same,selectivity ratio,[6],3640
same,EC50,[7],0.033 µM
same,EC50,[8],0.012 µM
same,EC50,[9],0.08 µM
same,EC50,[10],0.025 µM
Cc1cc(/C=C/C#N)cc(C)c1Oc1ccnc(NC2CCN(Cc3cn(CC(=O)NC4CCOCC4)nn3)CC2)n1,EC50,[2],0.005 µM
same,CC50 at 120 h,[1],19.2 µM
same,EC50,[3],0.004 µM
same,EC50,[4],0.19 µM
same,EC50,[5],0.232 µM
same,selectivity ratio,[6],4560
same,EC50,[7],0.034 µM
same,EC50,[8],0.019 µM
same,EC50,[9],0.522 µM
same,EC50,[10],0.022 µM
CCNC(=O)Cn1cc(CN2CCC(Nc3nccc(Oc4c(C)cc(/C=C/C#N)cc4C)n3)CC2)nn1,EC50,[2],0.002 µM
same,CC50 at 120 h,[1],20.7 µM
same,EC50,[3],0.001 µM
same,EC50,[4],0.215 µM
same,EC50,[5],0.164 µM
same,selectivity ratio,[6],14800
same,EC50,[7],0.011 µM
same,EC50,[8],0.007 µM
same,EC50,[9],0.406 µM
same,EC50,[10],0.007 µM
Cc1cc(/C=C/C#N)cc(C)c1Oc1ccnc(NC2CCN(Cc3cn(CC(N)=O)nn3)CC2)n1,EC50,[2],0.003 µM
same,CC50 at 120 h,[1],47.4 µM
same,EC50,[3],0.002 µM
same,EC50,[4],0.547 µM
same,EC50,[5],0.188 µM
same,selectivity ratio,[6],21600
same,EC50,[7],0.024 µM
same,EC50,[8],0.03 µM
same,EC50,[9],0.729 µM
same,EC50,[10],0.021 µM
CNC(=O)Cn1cc(CN2CCC(Nc3nc(Oc4c(C)cc(/C=C/C#N)cc4C)c4sccc4n3)CC2)nn1,EC50,[2],0.005 µM
same,CC50 at 120 h,[1],18.4 µM
same,EC50,[3],0.004 µM
same,EC50,[4],0.099 µM
same,EC50,[5],0.066 µM
same,selectivity ratio,[6],4720
same,EC50,[7],0.014 µM
same,EC50,[8],0.006 µM
same,EC50,[9],0.044 µM
same,EC50,[10],0.016 µM
Cc1ccnc2c1NC(=O)c1cccnc1N2C1CC1 [NEVIRAPINE],CC50 at 120 h,[1],> 15 µM
same,EC50,[3],0.151 µM
same,EC50,[4],> 15 µM
Cc1cc(/C=C/C#N)cc(C)c1Oc1nc(NC2CCN(Cc3cn(CC(=O)NC4CC4)nn3)CC2)nc2c1COC2,EC50,[2],0.008 µM
same,CC50 at 120 h,[1],118 µM
same,EC50,[3],0.005 µM
same,EC50,[4],0.304 µM
same,EC50,[5],0.275 µM
same,selectivity ratio,[6],22800
same,EC50,[7],0.015 µM
same,EC50,[8],0.016 µM
same,EC50,[9],0.114 µM
same,EC50,[10],0.033 µM
Cc1cc(/C=C/C#N)cc(C)c1Oc1nc(NC2CCN(Cc3cn(CC(N)=O)nn3)CC2)nc2c1COC2,EC50,[2],0.032 µM
same,CC50 at 120 h,[1],125 µM
same,EC50,[3],0.013 µM
same,EC50,[4],2.46 µM
same,EC50,[5],0.268 µM
same,selectivity ratio,[6],9570
same,EC50,[7],0.031 µM
same,EC50,[8],0.037 µM
same,EC50,[9],0.419 µM
same,EC50,[10],0.057 µM
Cc1cc(/C=C/C#N)cc(C)c1Oc1nc(NC2CCN(Cc3cn(CC(=O)NC4CCOCC4)nn3)CC2)nc2ccccc12,EC50,[2],0.014 µM
same,CC50 at 120 h,[1],18.4 µM
same,EC50,[3],0.008 µM
same,EC50,[4],0.161 µM
same,EC50,[5],0.645 µM
same,selectivity ratio,[6],2300
same,EC50,[7],0.027 µM
same,EC50,[8],0.015 µM
same,EC50,[9],0.055 µM
same,EC50,[10],0.031 µM
CNC(=O)Cn1cc(CN2CCC(Nc3nc(Oc4c(C)cc(/C=C/C#N)cc4C)c4ccccc4n3)CC2)nn1,CC50 at 120 h,[1],18.1 µM
same,EC50,[3],0.005 µM
same,EC50,[4],0.139 µM
same,EC50,[5],0.257 µM
same,selectivity ratio,[6],4020
same,EC50,[7],0.013 µM
same,EC50,[8],0.008 µM
same,EC50,[9],0.049 µM
same,EC50,[10],0.018 µM
